The results in this text go back to patent US20100216795A1, “TNIK INHIBITOR AND THE USE” (priority 2008, published 2010).

For orientation: IC50 means the midpoint of a concentration-inhibition curve.

The target in the test is T1, human TNIK (N-terminal segment, TNIK_N) (Homo sapiens, UniProt Q9UKE5).
T1 construct: made in house; host or cells: Sf21 insect cells (baculovirus)
T1 sequence (Q9UKE5 1-314): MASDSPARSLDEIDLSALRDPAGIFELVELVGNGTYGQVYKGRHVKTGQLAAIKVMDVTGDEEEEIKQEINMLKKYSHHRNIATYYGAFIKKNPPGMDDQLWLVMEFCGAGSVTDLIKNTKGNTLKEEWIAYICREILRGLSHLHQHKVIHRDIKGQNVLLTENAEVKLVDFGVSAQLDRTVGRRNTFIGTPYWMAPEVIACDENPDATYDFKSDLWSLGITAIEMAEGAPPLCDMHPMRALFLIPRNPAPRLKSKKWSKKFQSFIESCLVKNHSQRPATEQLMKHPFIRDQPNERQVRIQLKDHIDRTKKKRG
In words: TNIK kinase assay (mobility shift). The format is biochemical. To be noted: 25 μM ATP, 1 h at room temperature. The text has this:
A cDNA encoding the N-terminal segment (TNIK_N, residues 1-314) containing the kinase domain of human TNIK (NM_015028.1) was amplified from cDNA mixture synthesized from human tissue (Biochain) by PCR using the following primers: 5′-[…]-3′ ([SEQ ID NO:1]: forward primer, the underlined nucleotides indicates the location of a EheI site); 5′-[…]-3′ ([SEQ ID NO:2]: reverse primer, the underlined nucleotides indicates the location of a NotI site). The cDNA was subcloned into baculovirus transfer vector pFastBac_GSTb that includes protease cleavage site and glutathione S-transferase purification tag (GST-tag). The plasmid was purified and the insertion of the pFastBac_GSTb-TNIK_N was confirmed by DNA sequencing. Then E. coli DH10Bac competent cells were transformed with the plasmid to prepare the recombinant bacmid according to the instructions for the Bac-to-Bac™ baculovirus expression systems (Invitrogen). The Sf9 cells were transfected with the recombinant bacmid containing pFastBac_GSTb-TNIK_N using Cellfectin Reagent (Invitrogen) in SF-900II serum free media (Invitrogen). The viral supernatant was collected from the medium 72 h after transfection. The virus was amplified three times by infecting actively growing Sf9 or Sf21 cells in Grace's insect media (Invitrogen) supplemented with 10% FCS and an antibiotic-antimycotic reagent (Invitrogen) for 72 h at 27° C. in T-flask or roller bottles. The titer of amplified TNIK_N virus was estimated at 2.36×10^8 pfu/ml by using BacPAK™ Baculovirus Rapid Titer kit (Clontech).
Log-phase Sf21 cells (2×10^6 cells/ml) in the Grace's insect media were infected with the recombinant baculovirus at MOI of 3.0 and incubated in roller bottles (250 ml media per bottle) for 72 h at 27° C., after which, the cells were collected by centrifugation, and the cell pellet washed with cold PBS and kept at −80° C. until purification. The following purification procedures were carried out at 4° C. The frozen cells were thawed on ice and lysed in lysis buffer (50 mM Tris-HCl, pH 7.5, 150 mM NaCl, 1% Nonidet P-40, 5 mM DTT, 0.5 mM EDTA, 0.5 mM EGTA) supplemented with 1 mM phenylmethansulfonylfluoride, 2 μg/ml leupeptin, 2 μg/ml aprotinin, 1 mM NaF, 100 μM sodium orthovanadate, and 1 μM cantharidin by sonication. The suspended lysate was cleared by centrifugation at 9000 g for 20 min and the supernatant was incubated for 1 h with glutathione Sepharose beads (GE Healthcare). The beads were suspended in buffer-H (50 mM Tris-HCl, pH 7.5, 1 M NaCl, 1 mM DTT, 0.5 mM EDTA, 0.5 mM EGTA and 0.05% Brij35) and washed with buffer-H followed by buffer-L (50 mM Tris-HCl, pH 7.5, 150 mM NaCl, 1 mM DTT, 0.5 mM EDTA, 0.5 mM EGTA, 0.05% Brij35) in an Econo-pack column (BIO-RAD). The bound TNIK_N was eluted with elution buffer (50 mM Tris-HCl, pH 8.0, 150 mM NaCl, 1 mM DTT, 10% glycerol, 0.5 mM EDTA, 0.5 mM EGTA and 5 mM reduced glutathione). The eluted fractions were collected and determined the protein concentration by Bradford reagent (BIO-RAD). The TNIK_N fractions were pooled and desalted using 10DG column (BIORAD) equilibrated with the storage buffer (50 mM Tris-HCl, pH 7.5, 150 mM NaCl, 1 mM DTT, 10% glycerol, 0.05% Brij35). The purified TNIK_N was characterized by electrophoresis using 4-20% polyacrylamide gels and matrix-assisted laser desorption/ionization reflection time-of-flight (MALDI-TOF) mass spectrometry on a Voyager-DE RP MALDI/TOF (Applied Biosystems). TNIK_N was confirmed by the molecular weight and MASCOT Peptide Mass Fingerprint.
The kinase assays were conducted in a 20 μl volume using 384-well plates (Greiner). The reaction mixture consists of compound or vehicle (1% DMSO), 0.08 ng/μl TNIK_N, 1 μM FITC-labeled substrate peptides, FITC-x-Lys-Tyr-Lys-Thr-Leu-Arg-Gln ([SEQ ID NO.3], x: ε-aminocaproic acid), 20 mM Hepes, pH 7.5, 0.01% Triton X-100, 5 mM MgCl2, 25 μM ATP and 2 mM DTT. As blank, TNIK_N was excluded from the reaction mixture of vehicle (1% DMSO). […]
In the case of `Cc1cccc(C(=O)Nc2sc(Nc3ccccc3)nc2C(N)=O)c1` [Compound 2, 5-(3-methylbenzamido)-2-(phenylamino)thiazole-4-carboxamide], the IC50 is 40 nM.

`NC(=O)c1nc(Nc2ccccc2)sc1NC(=O)c1ccccc1F` [Compound 3, 5-(2-fluorobenzamido)-2-(phenylamino)thiazole-4-carboxamide]: the IC50 came to 19 nM.

As to `COc1ccc(C(=O)Nc2sc(Nc3ccccc3)nc2C(N)=O)cc1` [Compound 4, 5-(4-methoxybenzamido)-2-(phenylamino)thiazole-4-carboxamide], the IC50 turned out to be 10 nM.

`COc1cccc(C(=O)Nc2sc(Nc3ccccc3)nc2C(N)=O)c1` [Compound 5, 5-(3-methoxybenzamido)-2-(phenylamino)thiazole-4-carboxamide]: the IC50 came to 7700 nM.

On to `NC(=O)c1nc(Nc2ccccc2)sc1NC(=O)Cc1cccs1` [Compound 6, 2-(phenylamino)-5-(2-(thiophen-2-yl)acetamido)thiazole-4-carboxamide], for which the IC50 is 280 nM.

With `CC(C)CC(=O)Nc1sc(Nc2ccccc2)nc1C(N)=O` [Compound 7, 5-(3-methylbutanamido)-2-(phenylamino)thiazole-4-carboxamide], the IC50 is 180 nM.

Regarding `NC(=O)c1nc(Nc2ccccc2)sc1NC(=O)CC1CCCC1` [Compound 8, 5-(2-cyclopentylacetamido)-2-(phenylamino)thiazole-4-carboxamide], the IC50 was 130 nM.

On to `Cc1ccc(Nc2nc(C(N)=O)c(NC(=O)c3ccccc3F)s2)cc1` [Compound 9, 2-(p-toluidino)-5-(2-fluorobenzamido)thiazole-4-carboxamide], for which the IC50 was found to be 68 nM.

As to `CC(=O)Nc1ccc(C(=O)Nc2sc(Nc3ccc(C)cc3)nc2C(N)=O)cc1` [Compound 10, 2-(p-toluidino)-5-(4-acetamidobenzamido)thiazole-4-carboxamide], the IC50 stood at 14 nM.

Consider `Cc1ccc(Nc2nc(C(N)=O)c(NC(=O)c3ccccc3Cl)s2)cc1` [Compound 11, 2-(p-toluidino)-5-(2-chlorobenzamido)thiazole-4-carboxamide], for which the IC50 is 1700 nM.

On to `Cc1ccc(Nc2nc(C(N)=O)c(NC(=O)c3cccc(Br)c3)s2)cc1` [Compound 12, 2-(p-toluidino)-5-(3-bromobenzamido)thiazole-4-carboxamide], for which the IC50 stood at 1700 nM.

As for `Cc1ccc(Nc2nc(C(N)=O)c(NC(=O)c3c(F)cccc3F)s2)cc1` [Compound 13, 2-(p-toluidino)-5-(2,6-difluorobenzamido)thiazole-4-carboxamide], the IC50 is 180 nM.

Consider `COc1ccc(C(=O)Nc2sc(Nc3ccc(C)cc3)nc2C(N)=O)cc1OC` [Compound 14, 2-(p-toluidino)-5-(3,4-dimethoxybenzamido)thiazole-4-carboxamide], for which the IC50 came out at 57 nM.

As to `Cc1ccc(Nc2nc(C(N)=O)c(NC(=O)c3cccs3)s2)cc1` [Compound 15, 2-(p-toluidino)-5-(thiophene-2-carboxamido)thiazole-4-carboxamide], the IC50 was 31 nM.

Regarding `CCC(CC)C(=O)Nc1sc(Nc2ccc(C)cc2)nc1C(N)=O` [Compound 16, 2-(p-toluidino)-5-(2-ethylbutanamido)thiazole-4-carboxamide], the IC50 came to 4100 nM.

`CCNc1nc(C(N)=O)c(NC(=O)c2cc(-c3ccccc3)nc3c(C)cccc23)s1` [Compound 17, 2-(ethylamino)-5-(8-methyl-2-phenylquinoline-4-carboxamido)thiazole-4-carboxamide]: the IC50 came out at 3100 nM.

Take `Cc1ccc(C(=O)Nc2sc(Nc3ccccc3)nc2C(N)=O)cc1` [Compound A1, 5-(4-methylbenzamido)-2-(phenylamino)thiazole-4-carboxamide]: the IC50 came out at 6 nM.

As for `NC(=O)c1nc(Nc2ccccc2)sc1NC(=O)c1ccc(F)cc1` [Compound A2, 5-(4-fluorobenzamido)-2-(phenylamino)thiazole-4-carboxamide], the IC50 was determined as 17 nM.

As to `CC(=O)Nc1ccc(C(=O)Nc2sc(Nc3ccc(F)cc3)nc2C(N)=O)cc1` [Compound A4, 5-(4-acetamidobenzamido)-2-(4-fluorophenyl-amino)-thiazole-4-carboxamide], the IC50 stood at 18 nM.

Take `CC(=O)Nc1ccc(C(=O)Nc2sc(Nc3ccccc3C)nc2C(N)=O)cc1` [Compound A9, 2-(o-toluidino)-5-(4-acetamidobenzamido) thiazole-4-carboxamide]: the IC50 amounted to 18 nM.

As to `COc1ccc(Nc2nc(C(N)=O)c(NC(=O)c3ccc(NC(C)=O)cc3)s2)cc1` [Compound A11, 5-(4-acetamidobenzamido)-2-(4-methoxyphenyl-amino)thiazole-4-carboxamide], the IC50 came to 14 nM.

Consider `CC(=O)Nc1ccc(C(=O)Nc2sc(Nc3ccc(N)cc3)nc2C(N)=O)cc1` [Compound A19, 5-(4-acetamidobenzamido)-2-(4-aminophenyl-amino)thiazole-4-carboxamide], for which the IC50 came out at 24 nM.

For the molecule `CC(=O)Nc1ccc(C(=O)Nc2sc(Nc3cccnc3)nc2C(N)=O)cc1` [Compound A20, 5-(4-acetamidobenzamido)-2-(pyridin-3-ylamino) thiazole-4-carboxamide], the IC50 was found to be 9 nM.

Take `COc1ccc(Nc2nc(C(N)=O)c(NC(=O)c3ccc(N4CCN(C)CC4)cc3)s2)cc1` [Compound A22, 2-(4-methoxyphenylamino)-5-[4-(4-methyl-piperazin-1-yl)benzamido]thiazole-4-carboxamide]: the IC50 was 15 nM.

Take `COc1ccc(Nc2nc(C(N)=O)c(NC(=O)c3ccc(NCCO)cc3)s2)cc1` [Compound A23, 5-[4-(2-hydroxyethylamino)benzamido]-2-(4-methoxyphenylamino)thiazole-4-carboxamide]: the IC50 turned out to be 8 nM.

On to `COc1ccc(Nc2nc(C(N)=O)c(NC(=O)c3ccc(NCCN(C)C)cc3)s2)cc1` [Compound A24, 5-{4-[2-(dimethylamino)ethylamino]benzamido}-2-(4-methoxyphenylamino)thiazole-4-carboxamide], for which the IC50 stood at 11 nM.

As to `COc1ccc(Nc2nc(C(N)=O)c(NC(=O)c3ccc(NCCN4CCOCC4)cc3)s2)cc1` [Compound A27, 2-(4-methoxyphenylamino)-5-[4-(2-morpholino-ethyl-amino)benzamido]thiazole-4-carboxamide], the IC50 amounted to 9 nM.

Consider `COc1ccc(Nc2nc(C(N)=O)c(NC(=O)c3ccc(NCCN4CCCC4)cc3)s2)cc1` [Compound A29, 2-(4-methoxyphenylamino)-5-{4-[2-(pyrrolidin-1-yl)ethylamino]benzamido}thiazole-4-carboxamide], for which the IC50 was found to be 8 nM.

In the case of `COCCNc1ccc(C(=O)Nc2sc(Nc3ccc(OC)cc3)nc2C(N)=O)cc1` [Compound A31, 5-[4-(2-methoxyethylamino)benzamido]-2-(4-methoxyphenylamino)thiazole-4-carboxamide], the IC50 was determined as 10 nM.

As to `COc1ccc(Nc2nc(C(N)=O)c(NC(=O)c3ccc(NC(=O)CO)cc3)s2)cc1` [Compound A37, 5-[4-(2-hydroxyacetamido)benzamido]-2-(4-methoxyphenylamino)thiazole-4-carboxamide], the IC50 was 9 nM.
